Measured values taken from publication PMC9797212, “Surface Modification of Erythrocytes with Lipid Anchors: Structure–Activity Relationship for Optimal Membrane Incorporation, in vivo Retention, and Immunocompatibility” (Advanced nanobiomed research, 2022).

Columns and labels:
human RBCs = assay: Labeling of human RBCs with lipids, flow cytometry; assay type: cell-based; settings: lipids at 25 μM, 1 h; for percentage of labeled human RBCs (in words) / MFI of labeled human RBCs, fold higher than the rest of the lipids: flow cytometry
From the text: We acquired commercially available dialkyl indocarbocyanine lipids DiI-C18, DiI-C18:2, DiI-C16, DiI-C12 and synthesized additional headgroup derivatives of DiI-C18: DiI-amine, DiI-PEG5000, and DiI-PEG3400-methyltetrazine (Mtz). In addition, we prepared diacyl glycerol derivatives of Cy3: Cy3-C18, Cy3-C18:1, Cy3-C16, Cy3-C14, Cy3-C12, phospholipid derivative Cy3-distearoyl phosphatidylethanolamine (Cy3-DSPE), and Cy3-cholesterol. This library covers different lipid lengths, lipid types, and also headgroup-tail linkages. In addition, the library includes a limited number of headgroup derivatives relevant to drug delivery. Thus, PEGylated lipids have importance for erythrocyte PEGylation for blood camouflaging. Mtz is a click chemistry group that enables versatile modifications with biomolecules,[13] but also serves as a mimic of a small molecule payload (Mw 230 Da). To determine the labeling efficiency, we used fresh human RBCs from two healthy donors. RBCs were incubated with lipids at 25 μM for 1 h and washed and analyzed with flow cytometry for the percentage of labeled cells and mean fluorescence intensity (MFI). […] Select lipids were then used to label mouse RBCs. The data in Figure 2C,D show generally higher mouse RBC labeling efficiency (MFI and percent RBCs) than human RBCs. […] Finally, we checked the linearity of the Cy3 group signal when incorporated in RBCs.
Fresh human RBCs were obtained from discarded leukodepletion filters after processing sodium citrate anticoagulated donor blood at the Children’s Hospital Colorado Blood Donation Center. Institutional review board approval was not required for discarded material and anonymous samples. RBCs were eluted from leukodepletion filters by applying ACD buffer in the direction of the flow and were used within 2 h after blood collection. Sodium EDTA-anticoagulated mouse blood was collected from female or male BALB/c and NSG mice (8–10 weeks of age) via cardiac puncture, according to the animal protocol approved by the University of Colorado IACUC). Human RBCs were washed in ACD buffer and mouse RBC were washed in 1% BSA/PBS at room temperature at 3,000 g, total 3 times. Erythrocyte suspension (≈10^10/mL) was incubated with 25 μM lipids in ACD buffer (human RBCs) or 1% BSA/PBS (mouse RBCs) at 37 °C for 1 h and washed three times in ACD buffer or 1% BSA/PBS as described above. Labeling efficiency were determined by Guava easyCyte HT flow cytometer (Luminex Corp, Seattle, WA) as described later.

[1] = In vivo circulation of labeled RBCs and lipid retention, flow cytometry, BALB/c mice; settings: for half-life: both sexes, mouse, whole blood (RBCs), iv, mono- or biexponential decay, summary value, read-out: MFI half life, estimated (extrapolated) terminal (converted)
Method: Next, we investigated in vivo retention and longevity of modified RBCs. We used the lipids with the highest labeling efficiency (Figure 2C,D) for in vivo studies: DiI-C18, DiI-C18:2, DiI-C12, Cy3-C12, DiI-PEG3400Mtz, Cy3-DSPE, and Cy3-cholesterol. Labeled RBCs were injected intravenously in BALB/c mice and the circulating levels (percent positive RBCs) and the stability of the lipid (MFI of the labeled population) were analyzed by flow cytometry (Figure 3A). Representative dot plots for DiI-C18 and DiI-C18:2 (Figure 3B) show a distinct population of labeled RBCs at both 1 min (between 9% and 13% of total RBCs) and 3 weeks postinjection. We found differences between lipids in terms of both percent RBC and percent MFI (Figure 3C,D). […] DiI-C18 RBCs had ≈40 days circulation span and only about 33% decrease in MFI at Day 20. […] Cy3-cholesterol RBCs had ≈30 days circulation span, but MFI dropped below 35% at Day 22.
The University of Colorado Institutional Animal Care and Use Committee (IACUC) approved animal experiments (protocol 103 913(11)1D). Mice were treated according to regulations provided by the Office of Laboratory Animal Resources at the University of Colorado. BALB/c and NOD/LtSz-SCID IL2Rγc null (NSG) mice were bred in-house. Mice of 8–10 weeks age (males and females) were used for experiments. Mice were injected intravenously with ≈10^9 RBCs (each strain was injected with RBCs derived from the same strain). At different time intervals, ≈20 μL of blood were obtained with heparinated haematocrit capillary (ThermoFisher) via periorbital plexus. RBCs were resuspended at ≈0.5 million mL^−1 in 1%BSA/PBS and analyzed by Guava easyCyte HT flow cytometer (20 000 RBCs were counted after gating out platelets and leukocytes). The percentage of positive RBCs and mean fluorescence intensity (MFI) of labeled RBCs (if more than 1% of total RBCs) was determined using FlowJo software v.10 (BD Life Sciences, Ashland, OR). For pharmacokinetic analysis, the flow data were normalized to 100% injected dose (MFI and percent labeled RBCs at 1 min) and fit into mono or biexponential decay using the pharmacokinetic modeling software Boomer.[21]

[2] = Lipid stability in RBCs in mouse serum in vitro; assay type: in vitro ADME, mouse (BALB/c serum); settings: 3 h; for loss in MFI of labeled RBCs: 37 °C
Method: The nature of lipid linker affects in vivo retention. […] To compare the stability of different lipids in vitro, we measured the fluorescence of labeled RBCs after incubation in mouse serum for 3 h.
Mouse RBC labeled with lipids were incubated in mouse serum at 37 °C for up to 3 h. Intact RBCs were removed by centrifugation at 3000 g for 10 min at room temperature. RBCs were washed three times in 1% BSA/PBS to remove the remaining serum, and the labeling (MFI) was determined by flow cytometry as described above. The supernatant was analyzed for fluoresce released from RBC by dotting 2 μL on 0.45 μm nitrocellulose membrane and scanning with a Bio-Rad gel imager for Cy3 fluorescence at 540 nm excitation/560 nm emission. For TLC, 10 parts of methanol were added to 1 part of serum, and the tubes were centrifuged at 500 g for 10 min to pellet the protein fraction. The methanol phase was carefully collected, applied on TLC Silica Gel 60 F254 (EMD Millipore), and separated on the mobile phase chloroform: methanol (9:1) with 0.1% trifluoroacetic acid. The plates were scanned with a Bio-Rad gel imager for Cy3 fluorescence.

mouse RBCs = assay: Labeling of mouse RBCs with lipids, flow cytometry; assay type: cell-based, mouse (BALB/c); settings: lipids at 25 μM, 1 h
From the text: We acquired commercially available dialkyl indocarbocyanine lipids DiI-C18, DiI-C18:2, DiI-C16, DiI-C12 and synthesized additional headgroup derivatives of DiI-C18: DiI-amine, DiI-PEG5000, and DiI-PEG3400-methyltetrazine (Mtz). In addition, we prepared diacyl glycerol derivatives of Cy3: Cy3-C18, Cy3-C18:1, Cy3-C16, Cy3-C14, Cy3-C12, phospholipid derivative Cy3-distearoyl phosphatidylethanolamine (Cy3-DSPE), and Cy3-cholesterol. This library covers different lipid lengths, lipid types, and also headgroup-tail linkages. In addition, the library includes a limited number of headgroup derivatives relevant to drug delivery. Thus, PEGylated lipids have importance for erythrocyte PEGylation for blood camouflaging. Mtz is a click chemistry group that enables versatile modifications with biomolecules,[13] but also serves as a mimic of a small molecule payload (Mw 230 Da). […] RBCs were incubated with lipids at 25 μM for 1 h and washed and analyzed with flow cytometry for the percentage of labeled cells and mean fluorescence intensity (MFI). […]
Fresh human RBCs were obtained from discarded leukodepletion filters after processing sodium citrate anticoagulated donor blood at the Children’s Hospital Colorado Blood Donation Center. […] Labeling efficiency were determined by Guava easyCyte HT flow cytometer (Luminex Corp, Seattle, WA) as described later.

[3] = tested on: mouse peritoneal macrophages; assay: Uptake of labeled RBCs by peritoneal macrophages; assay type: cell-based; settings: 24 h incubation, fluorescent microscopy
Method: Fresh nonactivated macrophages were isolated and seeded in culture for 24 h in a 96-well culture-treated plate (Corning Inc.) as described.[19] On the next day, labeled RBCs were added (≈1 × 10^5 RBC/well) in triplicates, and macrophages were incubated for 24 h. In some experiments, PMF were prelabeled with 10 μM DiO for 2 h before addition of RBCs. After incubation, macrophages were washed with PBS 4 times to remove nonbound RBCs, fixed with 4% formalin, and stained with nuclear stain Hoechst. Cells were imaged under 100× magnification with Zeiss Axio Observer 5 epifluorescent microscope, and ≈7 microscopic fields were acquired. To verify RBC localization outside the cells, a Nikon Eclipse AR1HD inverted confocal microscope with 405, 488, 561, and 640 nm excitation lasers and corresponding emission filters was used. The percentage of DiI+ cells and rosette+ cells per field was determined manually and plotted with Prism.

[4] = Organ biodistribution of labeled RBCs (NIR imaging, confocal microscopy of liver and spleen); settings: Day 40 (DiI-C18 RBCs), Day 29 (DiI-PEG3400Mtz RBCs)
Method: To determine the location of the label in the clearance organs, we imaged freshly excised livers and spleens of BALB/c mice injected with DiI-C18 RBCs and DiI-PEG3400Mtz RBCs (Day 40 and Day 29, respectively) with confocal microscope.
When labeled RBCs reached <1% of total RBCs (usually 10% or less of the injected dose), mice were injected with FITC-lectin and Hoechst and sacrificed with carbon dioxide (CO2) followed by cardiac perfusion. Fresh livers and spleens were placed on glass slides and imaged with Nikon Eclipse AR1HD inverted confocal microscope with Plan Apo 10 objective as described.[18]

[5] = parameters: method as in PMID 33532572; settings: 48 h postinjection in mice ref 8a; cited from earlier work
[6] = parameters: species or system BALB/c mice; settings: mouse
Method: Figure 6. Biodistribution and immune recognition of RBCs. A) RBCs labeled with DiR were injected in BALB/c mice and blood fluorescence was monitored with NIR scanner Li-COR Odyssey. […] D) Confocal microscopy images of fresh livers and spleens of mice injected with DiI-C18 and DiI-PEG3400Mtz (after in vivo labeling of blood vessels and nuclei with FITC-lectin and Hoechst). The lipid accumulates in extrasinusoidal cells in the spleen and predominantly in sinusoidal cells in the liver (i.e., endothelium and Kupffer cells). […] E) RBCs were incubated with fresh peritoneal macrophages for 24 h. […] F) Quantification of percent cells (per field) that contain intracellular DiI. G) Quantification of percent cells (per field) that contain DiI+ rosettes. P-value: ****0.0001; ***<0.001 2-sided t-test, alpha 0.05.

Row | SMILES | percentage of labeled human RBCs (in words) (human RBCs) | circulation and retention of labeled RBCs (in words) ([1]; i.v., BALB/c) | loss in MFI of labeled RBCs [2] | MFI of labeled human RBCs, fold higher than the rest of the lipids (human RBCs) | half-life ([1]; BALB/c) [h] | also measured
1 | CCCCCCCCCCCC(=O)OCC(CNC(=O)CCCCC[N+]1=C(/C=C/C=C2/N(C)c3ccccc3C2(C)C)C(C)(C)c2ccccc21)OC(=O)CCCCCCCCCCC (stereo not drawn) [Cy3-C12] | highest percentage of labeled human RBCs | disappeared within a few days postinjection | less than 15% | – | – | drop in MFI of labeled RBCs ([1]; Day 3, 1 min postinjection = 100%): 85%
2 | CCCCCCCCCCCCCC(=O)OCC(CNC(=O)CCCCC[N+]1=C(/C=C/C=C2/N(C)c3ccccc3C2(C)C)C(C)(C)c2ccccc21)OC(=O)CCCCCCCCCCCCC (stereo not drawn) [Cy3-C14] | highest percentage of labeled human RBCs | – | – | – | – | –
3 | CCCCCCCCCCCCCCCCCC(=O)OC[C@H](COP(=O)(O)OCCNC(=O)CCCCC[N+]1=C(/C=C/C=C2/N(C)c3ccccc3C2(C)C)C(C)(C)c2ccccc21)OC(=O)CCCCCCCCCCCCCCCCC [Cy3-DSPE, Cy3-distearoyl phosphatidylethanolamine] | highest percentage of labeled human RBCs | disappeared within a few days postinjection | over 60% | 2–3 fold | – | human RBC labeling efficiency (human RBCs): 100%; TLC analysis of serum supernatant [2]: presence of intact Cy3-DSPE along with some degradation products; fluorescence released in serum from labeled RBCs, relative to DiI-C18 RBCs [2]: five times more fluorescence released in serum
4 | CC(C)CCCC(C)C1CCC2C3CC=C4CC(OC(=O)CCCCC[N+]5=C(C=CC=C6N(C)c7ccccc7C6(C)C)C(C)(C)c6ccccc65)CCC4(C)C3CCC12C (stereo not drawn) [Cy3-cholesterol] | – | longest circulation and retention | less than 15% | – | 300 | MFI of labeled RBCs, percent of initial ([1]; Day 22, 1 min postinjection = 100%): below 35%
5 | CCCCCCCCCCCCN1/C(=C/C=C/C2=[N+](CCCCCCCCCCCC)c3ccccc3C2(C)C)C(C)(C)c2ccccc21 [DiI-C12] | highest percentage of labeled human RBCs | – | less than 15% | 2–3 fold | 72 | mouse RBC labeling efficiency (in words) (mouse RBCs): highest efficiency; human RBC labeling efficiency (in words) (human RBCs): highest efficiency; decrease in MFI of labeled RBCs (in words) ([1]; i.v., BALB/c): much faster decrease in MFI than DiI-C18 and Cy3-cholesterol
6 | CCCCCCCCCCCCCCCCN1/C(=C/C=C/C2=[N+](CCCCCCCCCCCCCCCC)c3ccccc3C2(C)C)C(C)(C)c2ccccc21 [DiI-C16] | – | – | – | 2–3 fold | – | –
7 | CCCCCCCCCCCCCCCCCCN1/C(=C/C=C/C2=[N+](CCCCCCCCCCCCCCCCCC)c3ccccc3C2(C)C)C(C)(C)c2ccccc21 [DiI-C18] | – | longest circulation and retention | less than 15% | 2–3 fold | > 1920 | macrophages with intracellular Cy3 fluorescence [3]: mostly intracellular uptake; location of Cy3 signal in liver and spleen, confocal microscopy [4]: predominant accumulation of Cy3 signal in extrasinusoidal spleen cells and some accumulation in the liver sinusoids; human RBC labeling efficiency (human RBCs): 28%; decrease in MFI of labeled RBCs ([1]; Day 20, 1 min postinjection = 100%): about 33%; lipid present in the RBC membrane [5]: up to 90%
8 | CCCCCCCCCCCCCCCCCCN1/C(=C/C=C/C2=[N+](CCCCCCCCCCCCCCCCCC)c3ccc(CN)cc3C2(C)C)C(C)(C)c2ccccc21 [DiI-amine] | – | – | – | – | – | labeling efficiency of human RBCs, fold lower than the parent DiI-C18 (human RBCs): ≈ 4 fold
9 | CCCCCCCCCCCCCCCCCCN1C(=CC=CC=CC=CC2=[N+](CCCCCCCCCCCCCCCCCC)c3ccccc3C2(C)C)C(C)(C)c2ccccc21.[I-] [DiR-C18, 1,1′-Dioctadecyl-3,3,3′,3′-Tetramethylindotricarbocyanine Iodide] | – | – | – | – | – | in vivo life span of labeled RBCs [6]: over 30 days; terminal half life of labeled RBCs ([6]; in vivo): 175 h
